Data taken from patent US10519159B2, “Antiviral aliphatic ester prodrugs of tenofovir” (Merck Sharp & Dohme Corp., priority 2016, dated 2019).
Where two headings read alike, the source gives them in different places.

Experiments:
[1] = system: HIV-1 (H9/IIIB strain); assay: Multiple round HIV-1 infection assay (Viking assay) in MT4-GFP cells; assay type: cell-based
Procedure: Assessing Antiviral Potency in a Multiple Round HIV-1 Infection Assay (Viking Assay)
The antiviral activity of the tenofovir prodrugs of the Examples herein was assessed in an assay that measures the rate of replication of HIV in cell culture, termed the Viking assay (Viral KINetics in Green cells) and performed as follows. HIV-1 replication was monitored using MT4-gag-GFP clone D3 (hereafter designated MT4-GFP), which are MT-4 cells modified to harbor a GFP reporter gene, the expression of which is dependent on the HIV-1 expressed proteins tat and rev. Productive infection of an MT4-GFP cell with HIV-1 results in GFP expression approximately 24 h post-infection. MT4-GFP cells were maintained at 37° C./5% CO2/90% relative humidity in RPMI 1640 supplemented with 10% fetal bovine serum, 100 U/ml penicillin/streptomycin, and 400 μg/ml G418 to maintain the reporter gene. For infections, MT4-GFP cells were placed in the same medium lacking G418 and infected overnight with HIV-1 (H9/IIIB strain) virus at an approximate multiplicity of infection of 0.01 in the same incubation conditions. Cells were then washed and re-suspended in either RPMI 1640 supplemented with 10% or 50% normal human serum (NHS) at 1.6×10^5 cells/mL (10% NHS or 50% NHS, respectively). Compound plates were prepared by dispensing compounds dissolved in DMSO into wells of 384 well poly-D-lysine-coated plates (0.2 μl/well) using an ECHO acoustic dispenser. Each compound was tested in a 10-point serial 3-fold dilution (typical final concentrations: 8.4 μM-0.42 nM). Controls included no inhibitor (DMSO only) and a combination of three antiviral agents (efavirenz, indinavir, an in-house integrase strand transfer inhibitor at final concentrations of 4 μM each). Cells were added (50 μL/well) to compound plates and the infected cells were maintained at 37° C./5% CO2/90% relative humidity.
Infected cells were quantified at two time points, ˜48 h and ˜72 h post-infection, by counting the number of green cells in each well using an Acumen eX3 scanner. The increase in the number of green cells over ˜24 h period gives the reproductive ratio, R0, which is typically 5-15 and has been shown experimentally to be in logarithmic phase (data not shown). Inhibition of R0 is calculated for each well, and IC50s determined by non-linear 4-parameter curve fitting.

[2] = Prodrug stability assay in bio-relevant media (FaSSIF with pancreatin), GI tract stability; assay type: in vitro ADME
Procedure: Prodrug Stability Assay in Bio-Relevant Media
The following assay was employed to evaluate the stability of the prodrugs in simulated gastrointestinal tract conditions. Preparation of fasted state simulated intestinal fluid (FaSSIF) using Phares SIF Powder was carried out according to protocols from Phare Drug Delivery AG (Baselland, Switzerland). For sample preparation, 10 μL stock solutions (10 mM) of prodrug substance in DMSO was added to 990 μL of 0.5 mg/mL Pancreatin solution (Fisher CAS #8049-47-6) in FaSSIF. Two samples were prepared for each compound. If the sample was a clear solution, it was directly analyzed by HPLC. If the sample was not clear, the sample was […], maintained at 37° C. and observed 5 h later. If the sample was clear, HPLC analysis was directly performed. If the sample was still not clear, the sample was diluted with 100% ACN and assayed by HPLC. All the samples were vortexed for 3 min and observed before injection. For the diluted samples, the area is multiplied by a dilution factor when the data is analyzed. The analysis was carried out with an Agilent 1100 series HPLC with autosampler. The column was a Poroshell 120 EC-C18, 4.6×50 mm, 2.7 μm. The flow rate was 1.8 mL/min, and the injection volume was 5 or 10 μL. UV detection was in the range 210-400 nm. The mobile phase consisted of solvent A (water plus 10 mM tetrabutylammonium bromide) and solvent B (acetonitrile) with a gradient of: 90% solvent A at 0 min, changing to 95% solvent B over 6 min, maintaining for 1.5 min, then reverting to 90% solvent A over 1.6 min. The HPLC peak area of the prodrug at 5 h was divided by the HPLC peak area of the prodrug at 0 h, to generate the % claimed parent ratio, which is summarized in Table 1 for gastrointestinal (GI) Tract stability.

[3] = Human immunodeficiency virus 1, IIIB, Table 2, L-Ala comparison compounds, MT4-GFP cells, HIV-1 H9/IIIB, 10% normal human serum, read-out: Viking, IC50 (10% NHS)
[4] = Human immunodeficiency virus 1, IIIB, Table 2, L-Ala comparison compounds, MT4-GFP cells, HIV-1 H9/IIIB, 50% normal human serum, read-out: Viking, IC50 (50% NHS)
[5] = Table 2, L-Ala comparison compounds, % parent at 5 h vs 0 h, pancreatin in FaSSIF
[6] = Table 1, MT4-GFP cells infected with HIV-1 H9/IIIB, 10% normal human serum, read-out: Viking, IC50 (10% NHS)
[7] = Table 1, MT4-GFP cells infected with HIV-1 H9/IIIB, 50% normal human serum, read-out: Viking, IC50 (50% NHS)
[8] = Table 1, % parent: HPLC peak area of prodrug at 5 h / 0 h, 0.5 mg/mL pancreatin in FaSSIF, 37° C.

Row | SMILES | IC50 [1, 3] [nM] | IC50 [1, 4] [nM] | GI Tract stability [2, 5] [%] | IC50 [1, 6] [nM] | IC50 [1, 7] [nM] | GI Tract stability [2, 8] [%]
1 | CCCOC(=O)[C@H](C)NP(=O)(CO[C@H](C)Cn1cnc2c(N)ncnc21)OCCC(=O)OC(C)C (single isomer, unassigned) [Compound 15A, reference compound] | 101 | 1220 | 60.1 |  |  | 
2 | CCCOC(=O)[C@H](C)NP(=O)(CO[C@H](C)Cn1cnc2c(N)ncnc21)OCC[C@H](C)C(=O)OC(C)C (single isomer, unassigned) [Compound 16A, reference compound] | 213 | 1830 | 51.3 |  |  | 
3 | CCCOC(=O)[C@H](C)NP(=O)(CO[C@H](C)Cn1cnc2c(N)ncnc21)OCc1ccc(F)cc1C(=O)OC(C)C (single isomer, unassigned) [Compound 17A, reference compound] | 35 | 2230 | 20.3 |  |  | 
4 | CCCOC(=O)C(C)(C)NP(=O)(CO[C@H](C)Cn1cnc2c(N)ncnc21)OCCC(=O)OC(C)C (single isomer, unassigned) [Example 1A] |  |  |  | 23.2 | 102 | 
5 | CCCOC(=O)C(C)(C)NP(=O)(CO[C@H](C)Cn1cnc2c(N)ncnc21)OCCC(=O)OC(C)C (single isomer, unassigned) [Example 1B] |  |  |  | 5.09 | 13.8 | 99.35
6 | CC(C)OC(=O)CCOP(=O)(CO[C@H](C)Cn1cnc2c(N)ncnc21)NC(C)(C)C(=O)OC(C)C (single isomer, unassigned) [Example 2A] |  |  |  | 22.4 | 69.8 | 100.30
7 | CC(C)OC(=O)CCOP(=O)(CO[C@H](C)Cn1cnc2c(N)ncnc21)NC(C)(C)C(=O)OC(C)C (single isomer, unassigned) [Example 2B] |  |  |  | 601 | 622 | 
8 | CC(C)OC(=O)C1(COP(=O)(CO[C@H](C)Cn2cnc3c(N)ncnc32)NC(C)(C)C(=O)OC(C)C)CC1 (single isomer, unassigned) [Example 3A] |  |  |  | 88.7 | 521 | 
9 | CC(C)OC(=O)C1(COP(=O)(CO[C@H](C)Cn2cnc3c(N)ncnc32)NC(C)(C)C(=O)OC(C)C)CC1 (single isomer, unassigned) [Example 3B] |  |  |  | 16.8 | 70.9 | 
10 | CCOC(=O)C1(CCOP(=O)(CO[C@H](C)Cn2cnc3c(N)ncnc32)NC(C)(C)C(=O)OC(C)C)CC1 (single isomer, unassigned) [Example 4A] |  |  |  | 252 | 756 | 
11 | CCOC(=O)C1(CCOP(=O)(CO[C@H](C)Cn2cnc3c(N)ncnc32)NC(C)(C)C(=O)OC(C)C)CC1 (single isomer, unassigned) [Example 4B] |  |  |  | 7.84 | 22.7 | 99.72
12 | CC(C)OC(=O)[C@@H](C)CCOP(=O)(CO[C@H](C)Cn1cnc2c(N)ncnc21)NC(C)(C)C(=O)OC(C)C (single isomer, unassigned) [Example 5A] |  |  |  | 7.52 | 33.6 | 
13 | CC(C)OC(=O)[C@@H](C)CCOP(=O)(CO[C@H](C)Cn1cnc2c(N)ncnc21)NC(C)(C)C(=O)OC(C)C (single isomer, unassigned) [Example 5B] |  |  |  | 540 | 2220 | 
14 | CCCOC(=O)C(C)(C)NP(=O)(CO[C@H](C)Cn1cnc2c(N)ncnc21)OCC[C@H](C)C(=O)OC(C)C (single isomer, unassigned) [Example 6A] |  |  |  | 5.54 | 15.5 | 
